The text below walks through data of article PMC10517971, “An inverse agonist of orphan receptor GPR61 acts by a G protein-competitive allosteric mechanism” (Nature Communications, 2023).

The test relates to panel of GPCRs. In words: GPCR selectivity panel. The format is cell-based. How it is done:
A homogeneous Time-Resolved Fluorescence (HTRF) assay (Perkin Elmer, Dynamic2 kit #) was used to assess receptor basal and inverse agonist activity at human GPR61, GPR62, and GPR101. For routine inverse agonist screening frozen CHO TREx human GPR61, GPR62 and GPR101 cells were used. Cells were thawed, resuspended in complete assay media (DMEM F-12, 10% HI FBS, 100 μg/mL Normocin, 700 μg/mL Hygromycin B and 15 μg/mL Blasticidin) containing 1ug/ml doxycycline, plated in white 384 well plates (Corning, 3570) at a density of 750 cells/well (25 μl/ well) and cultured at 37 °C in an incubator overnight. For studies assessing basal and inverse agonist activity at human GPR61 mutants, CHO-K1 cells were transiently transfected using Fugene6, plated in white 384 well plates (7500 cells/well) and grown overnight at 37 °C, as described for receptor expression studies. […] Data were analyzed using the ratio of fluorescence intensity at 620 and 665 nm for each well, extrapolated from the cAMP standard curve to express data as nM cAMP for each well. […]
7 recepto r activities wer e measured using FL IPR® Calcium Assays. […]
11 measured using a cal cium specific dye. […]
18 change in fluorescence from baseline over a 60 second period (Excitation 470- 495 nm; Emission […]
20 Tetra® instrument to evaluate antagonist activity, with the change in fluorescence from baseline
21 being measured over a 60 second period. […]

Molecules are shown by their SMILES.

Take `CCOc1cc(C)nc(N(CCOC)S(=O)(=O)c2ccc(NCc3c(F)cncc3F)nc2OC)n1` [Compound 1]: the IC50 (commonly the concentration that gives 50% inhibition) (panel of GPCRs, read-out: off-target IC50 values) was greater than 10 µM. For the same compound, the “selectivity for GPR61” value (panel of common off-target GPCRs and related receptors GPR62 and GPR101) is given as “selective”.
